Where a SMILES comes first, the peptide text is derived from it. [ ]: non-standard residue; d: D form. The star is where a group is joined. X1 = C=C[C@@H](CC(O)[C@H](CC1CCCCC1)N*)C(C)C; Boc = CC(C)(C)OC(=O)*
target: T1, human renin (Homo sapiens, UniProt P00797); test: In Vitro Test With Pure Human Renin; format: biochemical; conditions: human tetradecapeptide renin substrate (hTD), pH 7.4, 3 hours at 37° C. vs 4° C., angiotensin I by RIA
T1 sequence (P00797 67-406): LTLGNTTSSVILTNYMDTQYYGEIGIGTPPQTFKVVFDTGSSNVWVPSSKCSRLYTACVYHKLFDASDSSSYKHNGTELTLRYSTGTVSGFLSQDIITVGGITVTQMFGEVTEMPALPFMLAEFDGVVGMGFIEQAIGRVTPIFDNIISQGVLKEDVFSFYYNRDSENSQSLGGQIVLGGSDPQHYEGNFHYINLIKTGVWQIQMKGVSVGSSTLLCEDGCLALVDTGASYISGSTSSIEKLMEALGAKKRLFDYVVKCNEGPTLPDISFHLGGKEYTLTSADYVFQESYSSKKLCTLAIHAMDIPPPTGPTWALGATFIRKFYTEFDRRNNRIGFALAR
Description: In Vitro Test With Pure Human Renin
The test is carried out in Eppendorf test tubes. The incubation mixture consists of (1) 100 μl of human renin in buffer A (0.1M sodium phosphate solution, pH 7.4, containing 0.1% bovine serum albumin, 0.1% sodium azide and 1 mM ethylenediaminetetraacetic acid), sufficient for a renin activity of 2-3 ng of angiotensin I/ml/hr.; (2) 145 μl of buffer A; (3) 30 μl of 10 μM human tetradecapeptide renin substrate (hTD) in 10 mM hydrochloric acid; (4) 15 μl of dimethyl sulfoxide with or without inhibitor and (5) 10 μl of a 0.03 molar solution of hydroxyquinoline sulfate in water.
The samples are incubated for 3 hours at 37° C. or 4° C. in triplicate. 2×100 μl samples per experimental test tube are used in order to measure the production of angiotensin I via RIA (standard radioimmunoassay; clinical assay solid phase kit). […] The production of angiotensin I in determined by the difference between the experiment at 37° C. and that at 4° C.
The following controls are carried out:
(a) Incubation of hTD samples without renin and without inhibitor at 37° C. and 4° C. The difference between these two values gives the base value of angiotensin I production.
(b) Incubation of hTD samples with renin, but without inhibitor at 37° C. and 4° C. The difference between these values gives the maximal value of angiotensin I production.
In each sample, the base value of the angiotensin I production is subtracted from the angiotensin I production which is determined. The difference between the maximal value and the base value gives the value of the maximal substrate hydrolysis (=100%) by renin.
The IC50 values are determined from a linear regression curve from a logit-log plot.

SMILES | IC50
CC[C@@H](C[C@H](O)[C@H](CC1CCCCC1)NC(=O)[C@H](Cc1c[nH]cn1)NC(=O)C(CC(=O)N1CCOCC1)Cc1cccc2ccccc12)C(C)C (some centres unmarked) [H] | 4.1 nM
C=C[C@@H](C[C@H](O)[C@H](CC1CCCCC1)NC(=O)[C@H](Cc1c[nH]cn1)NC(=O)CC(C)C)C(C)C [C] | 9 nM
CC[C@@H](C[C@H](O)[C@H](CC1CCCCC1)NC(=O)[C@H](Cc1c[nH]cn1)NC(=O)[C@@H](CC(=O)[C@@H]1CCCN1C(=O)OC(C)(C)C)Cc1ccccc1)C(C)C [F, t-butyl (S)-2-[[(R)-α-[[(S)-1-[[(1S,2S,4S)-1-(cyclohexylmethyl)-2-hydroxy-4-isopropylhexyl]carbamoyl]-2-imidazol-4-ylethyl]carbamoyl]phenethyl]acetyl]-1-pyrrolidinecarboxylate] | 4 nM
CC[C@@H](C[C@H](O)[C@H](CC1CCCCC1)NC(=O)[C@H](Cc1c[nH]cn1)NC(=O)C(CC(=O)C1CCCC1)Cc1ccccc1)C(C)C (mixture of isomers) [Q] | 68 nM
CC[C@@H](C[C@H](O)[C@H](CC1CCCCC1)NC(=O)[C@H](Cc1c[nH]cn1)NC(=O)[C@H](Cc1ccccc1)NC(=O)[C@H]1CCCN1C(=O)OC(C)(C)C)C(C)C [A] | 3.5 nM
CC[C@@H](C[C@H](O)[C@H](CC1CCCCC1)NC(=O)[C@H](Cc1c[nH]cn1)NC(=O)[C@@H](CC(=O)NC(C)(CO)CO)Cc1ccccc1)C(C)C [G, (S)-N-[(1S,2S,4S)-1-(cyclohexylmethyl)-2-hydroxy-4-isopropylhexyl]-α-[[[[(R)-α-2-hydroxy-1-(hydroxymethyl)-1-methylethyl]carbamoyl]methyl]hydrocinnamamido]imidazole-4-propionamide] | 15 nM
C=C[C@@H](C[C@H](O)[C@H](CC1CCCCC1)NC(=O)[C@H](Cc1c[nH]cn1)NC(=O)[C@H](Cc1ccccc1)NC(=O)[C@H]1CCCN1C(=O)OC(C)(C)C)C(C)C [B, (2S,3S,5S)-2-(Boc--D--Pro--Phe--His--NH)-1-cyclohexyl-5-isopropyl-6-hepten-3-ol] | 0.3 nM
C=C[C@@H](C[C@H](O)[C@H](CC1CCCCC1)NC(=O)[C@H](Cc1c[nH]cn1)NC(=O)C(CC(=O)NCCN(CC(=O)OC(C)(C)C)C(=O)OC(C)(C)C)Cc1ccccc1)C(C)C (mixture of isomers) [Compound I, t-butyloxycarbonyl [2-[(R and S)-3-[[(S)-1-[[(1S,2S,4S)-1-(cyclohexylmethyl)-2-hydroxy-4-isopropyl-5-hexenyl]carbamoyl]-2-imidazol-4-ylethyl]-carbamoyl]-4-phenylbutyramido]ethyl]glycine t-butyl ester] | 46 nM
C=C[C@@H](CC(O)[C@H](CC1CCCCC1)NC(=O)[C@H](Cc1c[nH]cn1)NC(=O)[C@H](Cc1ccccc1)NC(=O)[C@@H]1CCCN1C(=O)[C@H]1CCCN1C(=O)OC(C)(C)C)C(C)C (stereo partly drawn) [R, (2S,5S)-2-(Boc--D--Pro--Pro--Phe--His--NH)-1-cyclohexyl-5-isopropyl-6-hepten-3-ol] (Boc-[dP]PFH-X1) | 1.7 nM
C=C[C@@H](C[C@H](O)[C@H](CC1CCCCC1)NC(=O)[C@H](Cc1c[nH]cn1)NC(=O)[C@H](Cc1ccccc1)NC(=O)N1CCOCC1)C(C)C [M] | 21 nM
C=C[C@@H](C[C@H](O)[C@H](CC1CCCCC1)NC(=O)[C@H](Cc1c[nH]cn1)NC(=O)[C@@H](CC(=O)C(C)(C)C)Cc1ccccc1)C(C)C [L] | 7 nM

Results, then the compound that gave them:

IC50 | SMILES
12 nM | C=C[C@@H](C[C@H](O)[C@H](CC1CCCCC1)NC(=O)[C@H](Cc1c[nH]cn1)NC(=O)[C@@H](CC(=O)N(C)C)Cc1ccccc1)C(C)C [O, (S)-N-[(1S,2S,4S)-1-(cyclohexylmethyl)-2-hydroxy-4-isopropyl-5-hexenyl]-α-[(R)-α-[(dimethylcarbamoyl)-methyl]hydrocinnamamido]imidazole-4-propionamide]
7.5 nM | C=C[C@@H](C[C@H](O)[C@H](CC1CCCCC1)NC(=O)[C@H](Cc1c[nH]cn1)NC(=O)[C@H](Cc1ccccc1)NC(=O)OC(C)(C)C)C(C)C [D, t-butyl [(S)-α-[[(S)-1-[[(1S,2S,4S)-1-cyclohexylmethyl-2-hydroxy-4-isopropyl-5-hexenyl]carbamoyl]-2-imidazol-4-ylethyl]carbamoyl]phenethyl]carbamate]
140 nM | C=C[C@@H](C[C@H](O)[C@H](CC1CCCCC1)NC(=O)[C@H](Cc1c[nH]cn1)NC(=O)[C@@H](CC(N)=O)Cc1ccccc1)C(C)C [N, (S)-α-[(R)-α-(carbamoylmethyl)hydrocinnamamido]-N-[(1S,2S,4S)-1-(cyclohexylmethyl)-2-hydroxy-4-isopropyl-5-hexenyl]imidazole-4-propionamide]
46 nM | C=C[C@@H](C[C@H](O)[C@H](CC1CCCCC1)NC(=O)[C@H](Cc1c[nH]cn1)NC(=O)C(CC(=O)C1CCCC1)Cc1ccccc1)C(C)C (mixture of isomers) [P, (S)-N-[(1S,2S,4S)-1-(cyclohexylmethyl)-2-hydroxy-4-isopropyl-5-hexenyl]-α-[(RS)-α-[(cyclopentyl-carbonyl)methyl]hydrocinnamamido]imidazole-4-propionamide]
17 nM | C=C[C@@H](C[C@H](O)[C@H](CC1CCCCC1)NC(=O)[C@H](Cc1c[nH]cn1)NC(=O)[C@@H](CC(=O)NC(C)(CO)CO)Cc1ccccc1)C(C)C [K, (S)-N-[(1S,2S,4S)-1-(cyclohexylmethyl)-2-hydroxy-4-isopropyl-5-hexenyl]-α-[(R)-α-[[[2-hydroxy-1-(hydroxymethyl)-1-methylethyl]carbamoyl]methyl]hydrocinnamamido]imidazole-4-propionamide]
7.9 nM | CC[C@@H](C[C@H](O)[C@H](CC1CCCCC1)NC(=O)[C@H](Cc1c[nH]cn1)NC(=O)[C@H](Cc1ccccc1)NC(=O)OC(C)(C)C)C(C)C [E, t-butyl [(S)-α-[[(S)-1-[[(1S,2S,4S)-1-cyclohexylmethyl-2-hydroxy-4-isopropylhexyl]carbamoyl]-2-imidazol-4-ylethyl]carbamoyl]phenethyl]carbamate]

— patent publication US5250517A (Hoffmann-La Roche Inc., priority 1987, dated 1993)
